Where two headings read alike, the source gives them in different places.
Key:
[1] = tested on: Recombinant Respiratory Syncytial virus strain A2 containing the firefly luciferase reporter (RSV-Fluc); experiment: microbe, parasite or virus in culture; type: cell-based; conditions: human respiratory syncytial virus, NHBE
MT4 cytotoxicity (CC50) = conditions: human, MT4 cells, MT4 CC50, Table 4
SARS-CoV-2 = experiment: microbe, parasite or virus in culture; type: cell-based; conditions: Severe acute respiratory syndrome coronavirus 2, read-out: SARS EC50

Row | SMILES | EC50 ([1]; read-out: RSV EC50, Table 4) | CC50 (MT4 cytotoxicity (CC50)) | EC50 ([1]; 72 h, read-out: RSV-Fluc EC50 (NHBE), NHBE cells, three days, Table 2) | EC50 ([1]; read-out: RSV EC50, Table 2a) | EC50 (SARS-CoV-2)
1 | CCCCCCCCCCCCCCCCCCOC[C@H](COP(=O)(O)OC[C@H]1O[C@@](C#N)(c2ccc3c(N)ncnn23)[C@H](O)[C@@H]1O)Oc1cccc(OC)n1 [Example 88, ((2R,3S,4R,5R)-5-(4-aminopyrrolo[2,1-f][1,2,4]triazin-7-yl)-5-cyano-3,4-dihydroxytetrahydrofuran-2-yl)methyl ((R)-2-((6-methoxypyridin-2-yl)oxy)-3-(octadecyloxy)propyl) hydrogen phosphate] | 31 nM | 201 nM |  |  | 
2 | CCCCCCCCCCCCCCCCCCOC[C@H](COP(=O)(O)OC[C@H]1O[C@@](C#N)(c2ccc3c(N)ncnn23)[C@H](O)[C@@H]1O)Oc1cncc(C#N)c1 [Example 84, ((2R,3S,4R,5R)-5-(4-aminopyrrolo[2,1-f][1,2,4]triazin-7-yl)-5-cyano-3,4-dihydroxytetrahydrofuran-2-yl)methyl ((R)-2-((5-cyanopyridin-3-yl)oxy)-3-(octadecyloxy)propyl) hydrogen phosphate] | 7 nM | 212 nM |  |  | 
3 | CCCCCCCCCCCCCCCCCCOC[C@H](COP(=O)(O)OC[C@H]1O[C@@](C#N)(c2ccc3c(N)ncnn23)[C@H](O)[C@@H]1O)Oc1ncccc1OC [Example 91, ((2R,3S,4R,5R)-5-(4-aminopyrrolo[2,1-f][1,2,4]triazin-7-yl)-5-cyano-3,4-dihydroxytetrahydrofuran-2-yl)methyl ((R)-2-((3-methoxypyridin-2-yl)oxy)-3-(octadecyloxy)propyl) hydrogen phosphate] | 46 nM | 454 nM |  |  | 
4 | CCCCCCCCCCCCCCCCCCOC[C@H](COP(=O)(O)OC[C@H]1O[C@@](C#N)(c2ccc3c(N)ncnn23)[C@H](O)[C@@H]1O)Oc1cc(OC)ccn1 [Example 90, ((2R,3S,4R,5R)-5-(4-aminopyrrolo[2,1-f][1,2,4]triazin-7-yl)-5-cyano-3,4-dihydroxytetrahydrofuran-2-yl)methyl ((R)-2-((4-methoxypyridin-2-yl)oxy)-3-(octadecyloxy)propyl) hydrogen phosphate] | 109 nM | 383 nM |  |  | 
5 | CCCCCCCCCCCCCCCCCCOC[C@H](COP(=O)(O)OC[C@H]1O[C@@](C#N)(c2ccc3c(N)ncnn23)[C@H](O)[C@@H]1O)Oc1ccc(C#N)c(OCC)c1 [Example 85, ((2R,3S,4R,5R)-5-(4-aminopyrrolo[2,1-f][1,2,4]triazin-7-yl)-5-cyano-3,4-dihydroxytetrahydrofuran-2-yl)methyl ((R)-2-(4-cyano-3-ethoxyphenoxy)-3-(octadecyloxy)propyl) hydrogen phosphate] | 8 nM | 143 nM |  |  | 
6 | CCCCCCCCCCCCCCCCOC[C@H](COP(=O)(O)OC[C@H]1O[C@@](C#N)(c2ccc3c(N)ncnn23)[C@H](O)[C@@H]1O)OCc1cc(F)cc(C#N)c1 [Example 119, [(2R,3S,4R,5R)-5-(4-Aminopyrrolo[2,1-f][1,2,4]triazin-7-yl)-5-cyano-3,4-dihydroxy-tetrahydrofuran-2-yl]methyl [(2R)-2-[(3-cyano-5-fluoro-phenyl)methoxy]-3-hexadecoxy-propyl] hydrogen phosphate] | 30 nM | 404 nM |  |  | 
7 | CCCCCCCCCCCCCCCCCCOC[C@H](COP(=O)(O)OC[C@H]1O[C@@](C#N)(c2ccc3c(N)ncnn23)[C@H](O)[C@@H]1O)OCc1ccccc1Cl [Example 64, ((2R,3S,4R,5R)-5-(4-aminopyrrolo[2,1-f][1,2,4]triazin-7-yl)-5-cyano-3,4-dihydroxytetrahydrofuran-2-yl)methyl ((R)-2-((2-chlorobenzyl)oxy)-3-(octadecyloxy)propyl) hydrogen phosphate] |  |  | 42 nM | 42 nM | 735 nM
8 | CCCCCCCCCCCCCCCCCCOC[C@H](COP(=O)(O)OC[C@H]1O[C@@](C#N)(c2ccc3c(N)ncnn23)[C@H](O)[C@@H]1O)Oc1ccc(OC)cn1 [Example 89, ((2R,3S,4R,5R)-5-(4-aminopyrrolo[2,1-f][1,2,4]triazin-7-yl)-5-cyano-3,4-dihydroxytetrahydrofuran-2-yl)methyl ((R)-2-((5-methoxypyridin-2-yl)oxy)-3-(octadecyloxy)propyl) hydrogen phosphate] | 28 nM | 962 nM |  |  | 
9 | CCCCCCCCCCCCCCCCCCOC[C@H](COP(=O)(O)OC[C@H]1O[C@@](C#N)(c2ccc3c(N)ncnn23)[C@H](O)[C@@H]1O)Oc1cc(C#N)ccn1 [Example 99, [(2R,3S,4R,5R)-5-(4-Aminopyrrolo[2,1-f][1,2,4]triazin-7-yl)-5-cyano-3,4-dihydroxy-tetrahydrofuran-2-yl]methyl [(2R)-2-[(4-cyano-2-pyridyl)oxy]-3-octadecoxy-propyl]hydrogen phosphate] |  | 1780 nM |  |  | 
10 | CCCCCCCC/C=C\CCCCCCCCOC[C@H](COP(=O)(O)OC[C@H]1O[C@@](C#N)(c2ccc3c(N)ncnn23)[C@H](O)[C@@H]1O)OCc1cc(F)cc(C#N)c1 [Example 128, ((2R,3S,4R,5R)-5-(4-aminopyrrolo[2,1-f][1,2,4]triazin-7-yl)-5-cyano-3,4-dihydroxytetrahydrofuran-2-yl)methyl ((R)-2-((3-cyano-5-fluorobenzyl)oxy)-3-(((Z)-octadec-9-en-1-yl)oxy)propyl) hydrogen phosphate] | 2 nM | 730 nM |  |  | 
11 | CCCCCCCCCCCCCCCCCCOC[C@@H](CCc1cc(F)cc(C#N)c1)COP(=O)(O)OC[C@H]1O[C@@](C#N)(c2ccc3c(N)ncnn23)[C@H](O)[C@@H]1O [Example 86, ((2R,3S,4R,5R)-5-(4-aminopyrrolo[2,1-f][1,2,4]triazin-7-yl)-5-cyano-3,4-dihydroxytetrahydrofuran-2-yl)methyl ((R)-4-(3-cyano-5-fluorophenyl)-2-((octadecyloxy)methyl)butyl) hydrogen phosphate] | 430 nM | 22000 nM |  |  | 
12 | CCCCCCCCCCCCCCCCCCOC[C@H](COP(=O)(O)OC[C@H]1O[C@@](C#N)(c2ccc3c(N)ncnn23)[C@H](O)[C@@H]1O)Oc1ccccc1 [Example 87, ((2R,3S,4R,5R)-5-(4-aminopyrrolo[2,1-f][1,2,4]triazin-7-yl)-5-cyano-3,4-dihydroxytetrahydrofuran-2-yl)methyl ((R)-3-(octadecyloxy)-2-phenoxypropyl) hydrogen phosphate] |  | 3100 nM |  |  | 
13 | CCCCCCCCCCCCCCCCOC[C@H](COP(=O)(O)OC[C@H]1O[C@@](C#N)(c2ccc3c(N)ncnn23)[C@H](O)[C@@H]1O)OCc1ccc(F)c(C#N)c1 [Example 109, [(2R,3S,4R,5R)-5-(4-Aminopyrrolo[2,1-f][1,2,4]triazin-7-yl)-5-cyano-3,4-dihydroxy-tetrahydrofuran-2-yl]methyl [(2R)-2-[(3-cyano-4-fluoro-phenyl)methoxy]-3-hexadecoxy-propyl] hydrogen phosphate] | 347 nM |  |  |  | 1600 nM
14 | CCCCCCCCCCCCCCCCCCOC[C@H](COP(=O)(O)OC[C@H]1O[C@@](C#N)(c2ccc3c(N)ncnn23)[C@H](O)[C@@H]1O)OCc1ccc(F)cc1 [Example 110, [(2R,3S,4R,5R)-5-(4-Aminopyrrolo[2,1-f][1,2,4]triazin-7-yl)-5-cyano-3,4-dihydroxy-tetrahydrofuran-2-yl]methyl [(2R)-2-[(4-fluorophenyl)methoxy]-3-octadecoxy-propyl] hydrogen phosphate] | 402 nM |  |  |  | 1200 nM
